The target in data set [1] is T1, plasmin (Homo sapiens, UniProt P00747).
T1 construct: trypsin and the related enzymes thrombin, plasmin, factor Xa, tPA
Briefly: Inhibition of plasmin (Ki). It counts as biochemical. The settings on record: Table 26.

Data set [2] addresses T2, factor XIIa (Homo sapiens, UniProt P00748).
T2 construct: glandular kallikrein, factor XIIa and plasma kallikrein
T2 sequence (P00748 373-615 limits assumed): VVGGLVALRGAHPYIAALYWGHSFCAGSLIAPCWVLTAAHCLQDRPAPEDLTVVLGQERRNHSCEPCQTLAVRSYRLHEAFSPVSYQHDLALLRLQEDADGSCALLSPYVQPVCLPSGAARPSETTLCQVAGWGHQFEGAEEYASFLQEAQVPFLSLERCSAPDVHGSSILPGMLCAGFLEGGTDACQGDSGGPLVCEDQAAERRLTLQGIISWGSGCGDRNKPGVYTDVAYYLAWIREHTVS
Briefly: Inhibition of factor XIIa (Ki). It counts as biochemical. The settings on record: Table 26.

Data set [3] deals with tPA (Homo sapiens, UniProt P00750). Description: Inhibition of tPA (Ki). It counts as biochemical. The settings on record: Table 26.
Sequence of tPA (P00750 36-562): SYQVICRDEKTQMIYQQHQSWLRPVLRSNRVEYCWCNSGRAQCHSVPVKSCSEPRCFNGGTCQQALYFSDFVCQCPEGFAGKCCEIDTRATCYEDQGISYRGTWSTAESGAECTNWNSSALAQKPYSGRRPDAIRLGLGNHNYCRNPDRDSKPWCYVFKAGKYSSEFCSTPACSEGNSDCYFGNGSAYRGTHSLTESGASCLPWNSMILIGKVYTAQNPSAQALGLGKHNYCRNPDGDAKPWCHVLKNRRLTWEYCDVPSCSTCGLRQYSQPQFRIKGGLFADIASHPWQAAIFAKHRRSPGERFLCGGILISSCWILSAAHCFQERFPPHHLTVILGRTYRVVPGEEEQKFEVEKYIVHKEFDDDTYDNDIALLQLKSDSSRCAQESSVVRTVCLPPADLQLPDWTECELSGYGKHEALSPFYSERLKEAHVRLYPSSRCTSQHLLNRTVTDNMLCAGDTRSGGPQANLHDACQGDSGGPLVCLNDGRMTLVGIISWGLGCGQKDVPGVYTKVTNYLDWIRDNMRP
The subject of data set [4] is human plasma. The settings on record: in vitro, FIG. 4. Here is the method:
Various coagulation tests were used in vitro to determine the efficacy of the inhibitors towards the thrombin-induced coagulation of its natural substrate fibrinogen. For that purpose, the thrombin time (TT), the activated partial thromboplastin time (aPTT) and the prothrombin time (PT, Quick value) were determined in human plasma.

Data set [5] has as its target thrombin (Bos taurus, UniProt P00735). Briefly: Inhibition of thrombin (dissociation constant Ki). It counts as biochemical.
Data set [6] deals with factor Xa (Bos taurus, UniProt P00743). Description: Inhibition of factor Xa (dissociation constant Ki). It counts as biochemical. The settings on record: Tables 19-25; read-out: Ki, Factor Xa.
Sequence of factor Xa (P00743 234-492 limits assumed): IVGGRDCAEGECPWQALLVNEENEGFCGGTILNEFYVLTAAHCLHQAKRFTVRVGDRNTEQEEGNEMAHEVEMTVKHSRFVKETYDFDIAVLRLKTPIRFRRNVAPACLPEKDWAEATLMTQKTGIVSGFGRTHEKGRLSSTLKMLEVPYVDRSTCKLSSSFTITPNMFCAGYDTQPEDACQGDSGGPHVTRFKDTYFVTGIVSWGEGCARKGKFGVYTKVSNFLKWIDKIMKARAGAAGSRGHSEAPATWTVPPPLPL
Sequence of factor Xa (P00743 41-180 partner limits assumed): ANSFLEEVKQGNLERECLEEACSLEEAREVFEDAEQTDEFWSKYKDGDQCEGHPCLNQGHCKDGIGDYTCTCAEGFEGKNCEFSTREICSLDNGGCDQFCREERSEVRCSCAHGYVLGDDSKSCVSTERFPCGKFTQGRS
Data set [7] concerns the target T3, trypsin (Bos taurus, UniProt P00760).
T3 sequence (P00760 24-246): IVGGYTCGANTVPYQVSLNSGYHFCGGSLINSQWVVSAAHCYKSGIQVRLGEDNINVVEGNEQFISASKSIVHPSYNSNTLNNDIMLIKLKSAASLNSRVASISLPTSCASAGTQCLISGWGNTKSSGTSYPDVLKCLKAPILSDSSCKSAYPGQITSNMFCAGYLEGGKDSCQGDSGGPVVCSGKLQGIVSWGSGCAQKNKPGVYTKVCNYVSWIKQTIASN
Briefly: Inhibition of trypsin (Ki). It counts as biochemical. The settings on record: Table 26.

Data set [8] deals with glandular kallikrein (Sus scrofa, UniProt P00752). Briefly: Inhibition of glandular kallikrein (Ki). It counts as biochemical. The settings on record: Table 26; read-out: Ki, Gland. Kallikrein.
Sequence of glandular kallikrein (P00752 8-246): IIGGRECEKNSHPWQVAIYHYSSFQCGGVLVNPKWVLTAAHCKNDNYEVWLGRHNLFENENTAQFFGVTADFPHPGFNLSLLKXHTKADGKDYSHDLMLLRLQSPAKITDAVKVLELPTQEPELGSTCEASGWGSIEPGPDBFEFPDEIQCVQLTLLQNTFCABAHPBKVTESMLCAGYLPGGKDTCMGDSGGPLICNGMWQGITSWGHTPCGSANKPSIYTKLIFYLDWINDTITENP
For data set [9], the target named is T4, plasma kallikrein (Homo sapiens, UniProt P03952).
T4 construct: glandular kallikrein, factor XIIa and plasma kallikrein
T4 sequence (P03952 391-638 limits assumed, species assumed): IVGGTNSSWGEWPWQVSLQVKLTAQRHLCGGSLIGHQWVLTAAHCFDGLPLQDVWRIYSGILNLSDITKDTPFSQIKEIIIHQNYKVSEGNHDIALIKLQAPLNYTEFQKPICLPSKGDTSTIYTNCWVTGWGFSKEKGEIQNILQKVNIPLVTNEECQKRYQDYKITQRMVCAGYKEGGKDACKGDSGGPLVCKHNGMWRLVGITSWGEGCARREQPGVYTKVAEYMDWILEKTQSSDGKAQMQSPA
T4 sequence (P03952 20-390 partner limits assumed, species assumed): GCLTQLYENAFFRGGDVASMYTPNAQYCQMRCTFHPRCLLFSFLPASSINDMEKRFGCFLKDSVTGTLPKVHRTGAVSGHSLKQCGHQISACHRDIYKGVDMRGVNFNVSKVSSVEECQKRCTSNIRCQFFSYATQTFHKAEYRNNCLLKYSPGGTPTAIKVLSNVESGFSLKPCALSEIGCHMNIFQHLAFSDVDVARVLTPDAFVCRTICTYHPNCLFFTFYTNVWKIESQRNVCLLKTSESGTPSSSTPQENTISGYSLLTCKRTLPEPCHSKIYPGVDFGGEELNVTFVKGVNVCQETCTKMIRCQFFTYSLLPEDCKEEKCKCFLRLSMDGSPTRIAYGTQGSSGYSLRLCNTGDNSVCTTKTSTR
Briefly: Inhibition of plasma kallikrein (Ki). It counts as biochemical. The settings on record: Table 26.

Data set [10] can be described thus: in vivo. The settings on record: mouse.
Data set [11] can be described thus: Plasma concentration in rats after oral administration (HPLC). The settings on record: rat, plasma, po, 100 mg/kg.
Procedure: (§1) For the pharmacokinetic characterization, the plasma concentration of selected derivatives was determined in rats after intravenous (i.v.), subcutaneous (s.c.) and peroral (p.o.) application according to the following three-step procedure:
(§2) 1. A physiological NaCl solution of the substance to be tested was submitted to high pressure liquid chromatography (HPLC) in order to determine its characteristic substance-specific retention time with the chosen test conditions.
(§3) 2. The substance to be tested was diluted in vitro in rat plasma. This solution was also submitted to HPLC to see whether the characteristic peak of the substance once again appeared at the substance-specific retention time.
(§4) 3. […] Blood samples were taken at time intervals of 15 minutes, from which plasma samples were prepared by centrifugation; those samples were also submitted to HPLC to see whether the characteristic peak of the substance appeared again at the substance-specific retention time.
A short description of data set [12]: Plasma concentration in rats after intravenous administration (HPLC). The settings on record: for pharmacokinetic properties: in words, compared with NAPAP; for Concentration in plasma: i.v. 1 mg/kg.
Procedure: as §1, §2, §3, §4
Data set [13] can be described thus: Plasma concentration in rats after subcutaneous administration (HPLC). The settings on record: rat, plasma, sc, 5 mg/kg.
Procedure: as §1, §2, §3, §4
Data set [14] has as its system thrombin-induced plasma coagulation. Briefly: Anticoagulant effect in vivo, thrombin-induced plasma coagulation of plasma of treated rats. Set-up: species or system rat. The settings on record: after i.v., s.c. and p.o. administration; FIG. 5. Here is the method:
After i.v., s.c. and p.o. administration of the compounds to be tested, the anticoagulant effect was determined in plasma of experimental animals (illustrated for compound 123 in FIG. 5).

For data set [15] the following is noted: cited from earlier work.

The values that follow come from US5518735A, “Meta-substituted phenylalanine derivatives” (priority 1990, dated 1996).

Structures can show the parent of a compound that is named as a salt. A value given as a limit tells only on which side of the number the result lay.

T1 sequence (P00747 581-810 limits assumed): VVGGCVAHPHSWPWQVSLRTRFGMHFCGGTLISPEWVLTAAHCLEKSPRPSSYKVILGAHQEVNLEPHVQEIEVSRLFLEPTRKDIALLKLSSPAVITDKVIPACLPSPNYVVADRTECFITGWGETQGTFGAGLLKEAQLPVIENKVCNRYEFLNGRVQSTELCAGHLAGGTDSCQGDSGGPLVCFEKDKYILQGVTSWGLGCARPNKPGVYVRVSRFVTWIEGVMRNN
T1 sequence (P00747 97-580 partner limits assumed): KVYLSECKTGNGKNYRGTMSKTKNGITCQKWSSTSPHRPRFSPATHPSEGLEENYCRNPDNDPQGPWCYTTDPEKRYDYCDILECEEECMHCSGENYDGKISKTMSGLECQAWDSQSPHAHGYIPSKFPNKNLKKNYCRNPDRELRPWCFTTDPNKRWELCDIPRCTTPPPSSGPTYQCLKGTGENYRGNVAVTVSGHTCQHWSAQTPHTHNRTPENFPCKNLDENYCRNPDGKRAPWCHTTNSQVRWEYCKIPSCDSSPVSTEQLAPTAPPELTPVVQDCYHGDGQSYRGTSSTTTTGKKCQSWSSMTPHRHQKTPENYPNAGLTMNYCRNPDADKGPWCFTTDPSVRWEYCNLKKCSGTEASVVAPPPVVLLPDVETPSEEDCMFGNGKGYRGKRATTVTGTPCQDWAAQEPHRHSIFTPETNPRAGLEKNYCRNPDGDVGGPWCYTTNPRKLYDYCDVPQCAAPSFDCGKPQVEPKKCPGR

For `CC1CCN(C(=O)C(Cc2cccc(C(=N)N)c2)NS(=O)(=O)c2ccc3ccccc3c2)CC1` (racemic) [Compound 34], the Ki in data set [1] was 4 µM; in [2], above 1000 µM; in [3], 460 µM. Further, the “influence on prothrombin time (PT)” value in [4] is recorded as “obtained by higher inhibitor concentrations”.

In turn, `N=C(NO)c1cccc(CC(NS(=O)(=O)c2ccc3ccccc3c2)C(=O)N2Cc3ccccc3CC2C(=O)O)c1` (racemic) [Compound 190, N-α-(2-Naphthylsulfonyl)-3-oxamidino-(D,L)-phenylalanyl-1,2,3,4-tetrahydroisoquinoline-3-carboxylic acid hydroiodide] came in with a Ki in data set [5] of 2.4 µM. The Ki in data set [6] is 130 µM. For the same compound, the Ki in data set [7] was 27 µM. The compound also displayed a Ki in data set [1] of 120 µM. In addition, in data set [2], the affinity, expressed as Ki, was 460 µM. In data set [3], the Ki was above 1000 µM. Besides, in data set [8], the Ki is above 1000 µM. Also, the Ki in data set [9] was above 1000 µM. In addition, the LD50 at 168 h in [10] (iv) is above 150 mg/kg. In data set [10] (po), this compound came in with an LD50 at 168 h above 3000 mg/kg. In data set [11], this compound came in with a concentration at 0.25 h of 481 ng/mL, a concentration at 0.5 h of 1110 ng/mL, a concentration at 0.75 h of 796 ng/mL and a concentration at 1 h of 574 ng/mL. In [11], this compound gave a concentration at 2 h of 542 ng/mL, a concentration at 3 h of 217 ng/mL, a concentration at 4 h of 113 ng/mL and a concentration at 5 h of 50 ng/mL. For the same compound, the pharmacokinetic properties result in data set [12] was “improved pharmacokinetic properties”. Besides, the Concentration in plasma in [12] (rat, 60 min) amounted to 0 ng/mL. Moreover, in data set [12] (rat, plasma, iv, 1 mg/kg), the concentration at 2 min was found to be 3260 ng/mL, the concentration at 5 min turned out to be 1610 ng/mL, the concentration at 10 min stood at 806 ng/mL and the concentration at 0.25 h amounted to 496 ng/mL. In data set [12] (rat, plasma, iv, 1 mg/kg), the concentration at 0.5 h came to 477 ng/mL and the concentration at 0.75 h turned out to be 134 ng/mL. In addition, in data set [13], the concentration at 0.25 h was 340 ng/mL, the concentration at 0.5 h is 330 ng/mL, the concentration at 0.75 h is 374 ng/mL and the concentration at 1 h was 492 ng/mL. Moreover, in [13], the concentration at 1.5 h is 354 ng/mL, the concentration at 2 h came to 270 ng/mL, the concentration at 3 h came to 165 ng/mL and the concentration at 4 h is 152 ng/mL. In data set [13], this compound had a concentration at 5 h of 138 ng/mL and a concentration at 6 h of 126 ng/mL.

`N=C(N)c1cccc(C[C@H](NS(=O)(=O)c2ccc3ccccc3c2)C(=O)N2CCC[C@@H]2C(=O)O)c1` [Compound 123, N-α-(2-Naphthylsulfonyl)-3-amidino-(L)-phenylalanyl-(D)-proline hydrochloride] displayed a Ki in data set [5] of 0.68 µM. Moreover, the Ki in data set [6] is 220 µM. For the same compound, the Ki in data set [7] is 0.96 µM. For the same compound, the Ki in data set [1] stood at 95 µM. Moreover, the inhibitory constant (Ki) in data set [2] was above 1000 µM. Besides, the Ki in data set [3] worked out at 300 µM. The Ki in data set [8] was above 1000 µM. Besides, the Ki in data set [9] was 59 µM. For the same compound, the “anticoagulant / antithrombin effect in plasma of experimental animals” value in data set [14] is reported as “the antithrombin effect can be detected in the clotting test”. In data set [10] (iv), this compound displayed a 50% lethal dose (LD50) at 168 h of 188 mg/kg. The LD50 at 168 h in data set [10] (po) was above 3000 mg/kg. In data set [11], this compound returned a concentration at 0.25 h of 230 ng/mL, a concentration at 0.5 h of 170 ng/mL, a concentration at 1 h of 100 ng/mL and a concentration at 1.5 h of 133 ng/mL. In [11], this compound showed a concentration at 3 h of 96 ng/mL and a concentration at 4 h of 67 ng/mL. The pharmacokinetic properties result in data set [12] is “improved pharmacokinetic properties”. Besides, in [12] (rat, 240 min), the Concentration in plasma stood at 0 ng/mL. In data set [12] (rat, plasma, iv, 1 mg/kg), the concentration at 2 min was 2330 ng/mL, the concentration at 5 min was 1180 ng/mL, the concentration at 10 min stood at 660 ng/mL and the concentration at 0.25 h amounted to 440 ng/mL. For the same compound, in [12] (rat, plasma, iv, 1 mg/kg), the concentration at 0.5 h stood at 260 ng/mL, the concentration at 0.75 h is 185 ng/mL, the concentration at 1 h was determined as 160 ng/mL and the concentration at 1.5 h is 68 ng/mL. In [12] (rat, plasma, iv, 1 mg/kg), this compound displayed a concentration at 2 h of 32 ng/mL and a concentration at 3 h of 22 ng/mL. In data set [13], this compound registered a concentration at 0.25 h of 792 ng/mL, a concentration at 0.5 h of 1340 ng/mL, a concentration at 0.75 h of 1380 ng/mL and a concentration at 1.5 h of 1780 ng/mL. Further, in [13], the concentration at 2 h was 1600 ng/mL, the concentration at 3 h was determined as 1140 ng/mL and the concentration at 4 h was determined as 927 ng/mL.

Regarding `CN[C@H](Cc1ccccc1)C(=O)N1CCC[C@H]1C(=O)N[C@H](C=O)CCCN=C(N)N` [N-methyl-D-Phe-Pro-Arg-H], the “absorption after oral administration” value in data set [15] was “absorption after oral administration has so far only been observed”.

With BOC-D-Phe-Pro-Boro-Arg-C10 H16, the “absorption after oral administration” value in [15] is on record as “absorption after oral administration has so far only been observed”.
